Values after ≈ are worked out from the molar mass of the structure shown.
Key:
[1] = tested on: Mycobacterium tuberculosis; experiment: Antimycobacterial activity against Mycobacterium tuberculosis; assay type: functional
[2] = biological target: T1, Enoyl-[acyl-carrier-protein] reductase [NADH] (Mycobacterium tuberculosis, UniProt P9WGR1); experiment: Inhibition of Mycobacterium tuberculosis InhA
T1 sequence (P9WGR1 whole entry): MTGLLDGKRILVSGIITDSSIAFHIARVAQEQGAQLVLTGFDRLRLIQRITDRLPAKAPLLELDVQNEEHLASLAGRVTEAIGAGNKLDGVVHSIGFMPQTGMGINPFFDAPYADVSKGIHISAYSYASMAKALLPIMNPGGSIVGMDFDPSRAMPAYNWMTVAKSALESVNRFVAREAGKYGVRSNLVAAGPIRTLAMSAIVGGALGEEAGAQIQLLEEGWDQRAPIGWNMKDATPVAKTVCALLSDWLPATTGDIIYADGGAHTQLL

[3] = biological target: T1, Enoyl-[acyl-carrier-protein] reductase [NADH]; experiment: Binding affinity to Mycobacterium tuberculosis InhA in presence of NADH
[4] = biological target: T1, Enoyl-[acyl-carrier-protein] reductase [NADH]; experiment: Binding affinity to Mycobacterium tuberculosis InhA in presence of NAD+
[5] = biological target: T1, Enoyl-[acyl-carrier-protein] reductase [NADH]; experiment: Inhibition of Mycobacterium tuberculosis InhA using dodecenoyl-CoA as substrate in presence of NADH by fluorimetric analysis
[6] = biological target: T1, Enoyl-[acyl-carrier-protein] reductase [NADH]; experiment: Inhibition of Mycobacterium tuberculosis InhA using trans-2-dodecenoyl-CoA as substrate
[7] = biological target: T1, Enoyl-[acyl-carrier-protein] reductase [NADH]; experiment: Binding affinity to Mycobacterium tuberculosis InhA in presence of TCEP and NADH by isothermal titration calorimetry
[8] = biological target: T1, Enoyl-[acyl-carrier-protein] reductase [NADH]; experiment: Binding affinity to Mycobacterium tuberculosis InhA in presence of NADH by surface plasmon resonance assay
[9] = biological target: T1, Enoyl-[acyl-carrier-protein] reductase [NADH]; experiment: Binding affinity to Mycobacterium tuberculosis InhA in presence of NAD+ by surface plasmon resonance assay
[10] = tested on: Mycobacterium tuberculosis; experiment: Antimycobacterial activity against Mycobacterium tuberculosis after 5 days by fluoresence analysis; assay type: functional; details: 120 h
[11] = biological target: T1, Enoyl-[acyl-carrier-protein] reductase [NADH]
[12] = biological target: T1, Enoyl-[acyl-carrier-protein] reductase [NADH]; experiment: Inhibition of Mycobacterium tuberculosis InhA using trans-2-decenoyl-CoA as substrate by spectrophotometric analysis

For `CCCCCCc1ccc(Oc2ccccc2C)c(O)c1`, the MIC50 [1] was 10.9 µM (≈ 3.1 µg/mL).
`Oc1cc(CCc2ccccc2)ccc1Oc1ccc(Cl)cc1Cl` gave an IC50 [2] of 21 nM and an MIC50 [1] of 52 µM (≈ 18.7 µg/mL).
`CCCCCCc1ccc(Oc2ccccc2[N+](=O)[O-])c(O)c1` gave an MIC50 [1] of 39.6 µM (≈ 12.5 µg/mL).
For `Cc1csc(C(C)(O)c2nnc(Nc3ccn(Cc4c(F)cccc4F)n3)s2)n1` (centres undefined), the MIC50 [1] was 0.19 µM (≈ 0.0826 µg/mL), the Kd [3] was 11.5 nM and the Kd [4] was 9300 nM. For the same compound, the IC50 [5] was 3 nM.
`CCCCCCc1ccc(Oc2ccccc2C#N)c(O)c1` was tested, and the Ki [2] was 2.14 nM and the MIC50 [1] was 8.4 µM (≈ 2.48 µg/mL).
With `CC1(C)CCC(Cc2cc(O)c(-c3ccccc3)c(=O)[nH]2)CC1` the MIC50 [1] was 0.08 µM (≈ 0.0249 µg/mL) and the IC50 [6] was 570 nM.
Compound `O=c1[nH]c(CC2CCCCC2)cc(O)c1-c1ccccc1` has an MIC50 [1] of 0.31 µM (≈ 0.0878 µg/mL), an IC50 [6] of 590 nM and a Kd [7] of 560 nM.
`Oc1cc(Cc2ccccc2)ccc1Oc1ccc(Cl)cc1Cl` showed an IC50 [2] of 51 nM and an MIC50 [1] of 27 µM (≈ 9.32 µg/mL).
`NC(=O)c1c[n+]([C@@H]2O[C@H](COP(=O)(O)OP(=O)(O)OC[C@H]3O[C@@H](n4cnc5c(N)ncnc54)[C@H](OP(=O)(O)O)[C@@H]3O)[C@@H](O)[C@H]2O)ccc1C(=O)c1ccncc1` gave a Ki [2] of 130 nM.
`CCCCc1ccnc(Cc2ccc(Oc3ccc(Cl)cc3Cl)c(O)c2)c1` gave a Ki [2] of 1100 nM and an MIC99 [1] of 6.4 µM (≈ 2.57 µg/mL).
For `CCCCCCc1ccc(Oc2ccccc2Cl)c(O)c1`, the MIC50 [1] was 5.1 µM (≈ 1.55 µg/mL).
Compound `Cc1ccn(C(C)c2nnc(Nc3ccn(Cc4c(F)cccc4Cl)n3)s2)n1` (centres undefined) has a Ki [2] of 2 nM and an MIC50 [1] of 1 µM (≈ 0.418 µg/mL).
Compound `CCCc1cc(C(=O)c2cc[n+]([C@@H]3O[C@H](COP(=O)(O)OP(=O)(O)OC[C@H]4O[C@@H](n5cnc6c(N)ncnc65)[C@H](O)[C@@H]4O)[C@@H](O)[C@H]3O)cc2C(N)=O)ccn1` has a Ki [2] of 2 nM and an MIC50 [1] of 2.7 µM.
In the case of `CNC(=O)c1cnc(NC2CCN(c3ccccn3)CC2)c(NCc2ccc(F)c(Oc3ccccc3)c2)c1`, the Kd [8] is reported as 250 nM, the Kd [9] is reported as greater than 100000 nM and the MIC50 [10] is reported as 25 µM (≈ 13.2 µg/mL). It also gave an IC50 [11] of 297 nM.
`CNC(=O)CN(C(=O)Cc1ccc(-n2cccn2)cc1)C1CCN(c2ccccn2)CC1` gave a Kd [8] of 36.8 nM, a Kd [9] greater than 100000 nM and an MIC50 [10] of 50 µM (≈ 21.6 µg/mL). The IC50 [11] was 5900 nM.
`Cc1cc(C)n(Cc2ccc(C(=O)NCc3ccc(F)cc3Cl)cc2)n1` showed a Ki [2] of 50 nM and an MIC90 [1] of 10 µM (≈ 3.72 µg/mL).
With `CNC(=O)[C@@H]1C[C@H](NC(=O)[C@@H](NC(=O)c2ccc(Cn3cccn3)cc2)[C@@H](C)OC(C)(C)C)CN1C(=O)c1ccccc1` the Kd [8] was 55 nM, the Kd [9] was 49000 nM and the MIC50 [10] was 0.13 µM (≈ 0.0765 µg/mL). The IC50 [11] was 12000 nM.
Compound `CNC(=O)CN1CCN(C(=O)[C@H]2CC[C@@H](NC(=O)Cc3sc4ccccc4c3C)CC2)[C@@H](Cc2ccccc2)C1=O` has a Kd [8] of 340 nM, a Kd [9] of 13400 nM and an MIC50 [10] of 13 µM (≈ 7.47 µg/mL). For the same compound, the IC50 [11] was 65 nM.
In the case of `CCc1cc(C(=O)c2cc[n+]([C@@H]3O[C@H](COP(=O)(O)OP(=O)(O)OC[C@H]4O[C@@H](n5cnc6c(N)ncnc65)[C@H](O)[C@@H]4O)[C@@H](O)[C@H]3O)cc2C(N)=O)ccn1`, the Ki [2] is reported as 7 nM and the MIC50 [1] is reported as 3 µM.
In the case of `CCCCCc1ccc(Oc2ccc(Cl)cc2Cl)c(O)c1`, the Ki [2] is reported as 11.8 nM and the MIC99 [1] is reported as 3.5 µM (≈ 1.14 µg/mL).
For `NC(=O)c1c[n+]([C@@H]2O[C@H](COP(=O)(O)OP(=O)(O)OC[C@H]3O[C@@H](n4cnc5c(N)ncnc54)[C@H](O)[C@@H]3O)[C@@H](O)[C@H]2O)ccc1C(=O)c1ccncc1`, the Ki [12] was 0.75 nM.
In the case of `Cc1csc(C(C)(O)c2n[nH]/c(=N\C(=O)c3c(F)cccc3F)s2)n1` (centres undefined), the MIC50 [1] is reported as 3.75 µM (≈ 1.43 µg/mL) and the IC50 [5] is reported as 200 nM.
Compound `CNC(=O)CN(Cc1ccc(F)cc1)C(=O)[C@H]1CC[C@@H](NC(=O)Cc2sc3ccccc3c2C)CC1` has a Kd [8] of 94 nM, a Kd [9] of 46700 nM and an IC50 [11] of 600 nM.
Work on `CCCCCCc1ccc(Oc2ccccc2Br)c(O)c1` yielded an IC50 [2] of 10 nM and an MIC50 [1] of 8.8 µM (≈ 3.07 µg/mL).
For `Oc1cc(CC2CCCCC2)ccc1Oc1ccc(Cl)cc1Cl`, the IC50 [2] was 110 nM and the MIC50 [1] was 27 µM (≈ 9.48 µg/mL).
Compound `NNC(=O)c1ccncc1` [ISONIAZID] has an MIC [1] of 1.8 µM (≈ 0.247 µg/mL).
In the case of `Oc1cc(Cl)ccc1Oc1ccc(Cl)cc1Cl` [TRICLOSAN], the MIC99 [1] is reported as 43.1 µM (≈ 12.5 µg/mL).

Reference: ChEMBL document CHEMBL4145513, “An overview on crystal structures of InhA protein: Apo-form, in complex with its natural ligands and inhibitors” (Eur J Med Chem, 2018)
